Assay results taken from patent publication US20240124389A1, “COMPOUND OR SALT THEREOF, LIPID PARTICLES, AND PHARMACEUTICAL COMPOSITION” (FUJIFILM Corporation, priority 2021, published 2024).

Legend:
[1] = Particle size of EPO mRNA-encapsulating lipid particles; assay type: physicochemical; conditions: aminolipid 50 / DOPE 10 / cholesterol 38.5 / DMG-PEG2000 1.5 mol %, lipid/nucleic acid 64 wt/wt
Method in brief: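 Lipid particles made from ethanol lipid phase (20 mmol/L total lipid, with DSPC, DOPE or DOPC, cholesterol, DMG-PEG2000) and EPO mRNA in pH 4 citrate buffer (lipid:mRNA about 16:1 to 64:1 w/w), mixed 3:1 aqueous:oil, then dialyzed against 10% sucrose. Size measured after 10-fold PBS dilution by light-scattering analyzer.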

human EPO = assay: Measurement of EPO enzyme activity (EPO protein in blood plasma of mice after intravenous administration of EPO mRNA lipid particles); assay type: in vivo; conditions: C57BL/6J mice, tail-vein i.v., mRNA 0.1 mg/kg, plasma 20 to 24 hours; aminolipid 50 / DOPE 10 / cholesterol 38.5 / DMG-PEG2000 1.5 mol %; lipid/nucleic acid 64 wt/wt
Method in brief: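 C57BL/6J mice received EPO mRNA (5moU) in lipid particles (ionizable lipid, DSPC/DOPE/DOPC, cholesterol, DMG-PEG2000) by tail-vein injection at 0.1 mg/kg mRNA. Plasma taken 20–24 h later; human EPO measured by ELISA and expressed relative to a comparative formulation set as 1.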

Particle size [1] [nm] | SMILES | Relative amount of EPO protein (with respect to Comparative Example 1) (human EPO)
136.1 | CCCCCCCOC(=O)CCCC(CCCC(=O)OCCCCCCC)OC(=O)OCCN(CCOC(=O)OC(CCCC(=O)OCCCCCC)CCCC(=O)OCCCCCC)CCN(CC)CC [Example 37, 1-Heptyl 21-hexyl 11-(2-(diethylamino)ethyl)-5-(4-(heptyloxy)-4-oxobutyl)-17-(4-(hexyloxy)-4-oxobutyl)-7,15-d ioxo-6,8,14,16-tetraoxa-11-azahenicosanedioate] | 5.18
79.5 | CCCCCCC(CCCC(=O)OCC(CCCCC)CCCCC)OC(=O)OCCN(CCCN(CC)CC)CCOC(=O)OC(CCCCCC)CCCC(=O)OCC(CCCCC)CCCCC (stereo not shown) [Example 13, Bis(2-pentylheptyl) 11-(3-(diethylamino)propyl)-5,17-dihexyl-7,15-dioxo-6,8,14,16-tetraoxa-11-azahenicosanedio ate] | 5.09

The next lines start with the compound.

SMILES | Particle size [1] [nm] | Relative amount of EPO protein (with respect to Comparative Example 1) (human EPO)
CCCCCCC(CCCC)COC(=O)CCCC(CCCCCC)OC(=O)OCCN(CCOC(=O)OC(CCCCCC)CCCC(=O)OCC(CCCC)CCCCCC)CCN(CC)CC (stereo not shown) [Example 8, Bis(2-butyloctyl) 11-(2-(diethylamino)ethyl)-5,17-dihexyl-7,15-dioxo-6,8,14,16-tetraoxa-11-azahenicosanedioate] | 81.3 | 2.27
CCCCCC(CCCCC)COC(=O)CCCC(CCC)OC(=O)OCCN(CCOC(=O)OC(CCC)CCCC(=O)OCC(CCCCC)CCCCC)CCN(CC)CC (stereo not shown) [Example 21, Bis(2-pentylheptyl) 11-(2-(diethylamino)ethyl)-7,15-dioxo-5,17-dipropyl-6,8,14,16-tetraoxa-11-azahenicosanedioate] | 109.4 | 4.66
CCCCCCCOC(=O)CCCC(CCCC(=O)OCCCCCCC)OC(=O)OCCN(CCOC(=O)OC(CCCC(=O)OCCCCCCC)CCCC(=O)OCCCCCCC)CCN(CC)CC [Example 29, diheptyl 11-(2-(diethylamino)ethyl)-5,17-bis(4-(heptyloxy)-4-oxobutyl)-7,15-dioxo-6,8,14,16-tetraoxa-11-azahenicosanedioate] | 108.7 | 9.90
